From ChEMBL document CHEMBL5252648, “Design, synthesis and bioactivity evaluation of a series of quinazolinone derivatives as potent PI3Kγ antagonist” (Bioorg Med Chem, 2023)
pIC50: −log10 of the molar value. The source made the active and inactive calls. No cut-off for these calls is given here.

Legend:
[1] = target: Phosphatidylinositol 4,5-bisphosphate 3-kinase catalytic subunit gamma isoform (Homo sapiens, UniProt P48736); experiment: Antagonist activity at PI3Kgamma (unknown origin) using PIP2 as substrate in presence of ATP incubated for 30 to 60 mins by ADP-glo based luminescence assay
Sequence of Phosphatidylinositol 4,5-bisphosphate 3-kinase catalytic subunit gamma isoform (P48736 whole entry, canonical isoform): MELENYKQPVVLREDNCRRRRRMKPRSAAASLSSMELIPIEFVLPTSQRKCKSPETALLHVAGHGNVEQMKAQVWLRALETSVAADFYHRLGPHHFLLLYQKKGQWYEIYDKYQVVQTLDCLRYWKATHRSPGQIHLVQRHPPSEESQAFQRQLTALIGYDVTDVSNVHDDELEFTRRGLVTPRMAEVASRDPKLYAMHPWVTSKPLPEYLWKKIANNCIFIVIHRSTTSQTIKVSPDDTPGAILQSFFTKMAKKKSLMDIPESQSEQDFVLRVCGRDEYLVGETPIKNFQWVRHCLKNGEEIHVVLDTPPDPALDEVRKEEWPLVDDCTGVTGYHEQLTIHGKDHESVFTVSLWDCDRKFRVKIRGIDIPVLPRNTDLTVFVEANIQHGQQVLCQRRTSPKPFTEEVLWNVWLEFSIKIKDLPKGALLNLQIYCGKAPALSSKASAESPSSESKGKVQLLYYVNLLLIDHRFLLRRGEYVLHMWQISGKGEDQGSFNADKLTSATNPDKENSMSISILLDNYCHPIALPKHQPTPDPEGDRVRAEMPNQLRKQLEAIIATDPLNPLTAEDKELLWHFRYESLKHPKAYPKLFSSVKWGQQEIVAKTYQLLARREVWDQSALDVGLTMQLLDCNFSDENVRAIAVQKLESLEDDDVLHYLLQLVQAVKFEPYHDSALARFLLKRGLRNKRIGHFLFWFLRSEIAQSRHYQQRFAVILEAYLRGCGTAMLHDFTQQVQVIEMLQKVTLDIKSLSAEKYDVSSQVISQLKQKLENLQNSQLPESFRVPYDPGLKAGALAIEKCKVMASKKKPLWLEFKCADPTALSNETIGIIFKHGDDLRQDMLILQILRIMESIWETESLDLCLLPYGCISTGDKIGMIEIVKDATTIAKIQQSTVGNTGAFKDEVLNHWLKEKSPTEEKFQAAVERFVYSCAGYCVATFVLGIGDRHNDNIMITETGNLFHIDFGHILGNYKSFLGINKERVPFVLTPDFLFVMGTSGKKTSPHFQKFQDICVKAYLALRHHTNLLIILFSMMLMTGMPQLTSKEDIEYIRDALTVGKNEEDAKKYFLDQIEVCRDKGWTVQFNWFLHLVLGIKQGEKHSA

[2] = tested on: MCF7; experiment: Cytotoxicity against human MCF7 cells assessed as reduction in cell viability incubated for 24 hrs by CCK-8 assay; assay type: functional, cell-based; settings: MCF7, 24 h
[3] = tested on: Jurkat; experiment: Downregulation of phosphorylated AKT protein expression in human Jurkat cells measured for 3 hrs; assay type: functional, cell-based; settings: dose 0.1-10 µM
[4] = tested on: Jurkat; experiment: Upregulation of phosphorylated ERK1/2 protein expression in human Jurkat cells at 10 uM measured for 3 hrs; assay type: functional, cell-based

pIC50 [1]: 6.68
SMILES: COc1ccc(C#Cc2cccc3cc(C(C)Nc4ncnc5[nH]cnc45)n(-c4ccccc4)c(=O)c23)cc1 (centres undefined)
pIC50 [2]: < 4.00
Activity [3]: Dose-Dependent Effect
Activity [4]: Active
